Several values for one entry are separate records, joined by “and”; a condition that tells them apart may be missing. Identical values can stand only once.
Assays:
C. elegans = C. elegans motor phenotype scoring on solid media (Punc/jerky-unc, coiled, paralyzed), wild-type young adults; format: in vivo, Caenorhabditis elegans; conditions: for EC50: Caenorhabditis elegans, any motor phenotype after 1 h on solid media, ± 95% CI, read-out: C. elegans - motor disruption EC50; for atypical locomotion (number of animals) / coiled (number of animals) / no phene (number of animals) / paralyzed (number of animals): young adults, 20 animals per trial, single technical replicate
[1] = system: Dirofilaria immitis L3/L4; assay: Dirofilaria immitis L3/L4 motility assay (DiroImager, 72 h); conditions: Dirofilaria immitis L4
[2] = system: Dirofilaria immitis microfilariae; assay: Dirofilaria immitis microfilariae immobility assay (DiroImager, 72 h); conditions: Dirofilaria immitis microfilariae
Protocol: We conducted experiments with the Missouri isolate of Dirofilaria immitis in two labs. In the first set of experiments, shown as part of Fig. 3c, D. immitis microfilariae and larval stage 3 (L3) worms were assayed in the laboratories of Bayer Animal Health GmbH (Monheim, Germany). For microfilariae immobility assays, approximately 250 freshly purified microfilariae were cultured in single wells of a 96-well microtiter plate containing supplemented RPMI 1640 medium[68],[69]. […] Microfilariae exposed to medium substituted with 1% DMSO were used as negative controls. Motility of microfilariae was evaluated after 72 h of drug exposure using an image-based approach—DiroImager, developed by Bayer Technology Services. As described in detail in refs. [68],[69], the DiroImager is an automated high-throughput platform that allows for high-resolution optical imaging of an entire 96-well microtiter plate.

[3] = 3.75uM, one hour, mean of three biological replicates, third c14 line of each analog
[4] = 15uM, one hour, mean of three biological replicates, second c14 line of each analog
[5] = 60uM, one hour, mean of three biological replicates, first c14 line of each analog

| SMILES | any phene (mean % fraction of young adults exhibiting any phenotype: coiled, jerky-Unc or paralyzed) (C. elegans; [3]) | any phene (mean % fraction of young adults exhibiting any phenotype: coiled, jerky-Unc or paralyzed) (C. elegans; [4]) | any phene (mean % fraction of young adults exhibiting any phenotype: coiled, jerky-Unc or paralyzed) (C. elegans; [5]) | EC50 (C. elegans) | % effect (motility), DIROIM L4 ([1]; 2 µM) | % effect (motility), DIROIM L4 ([1]; 10 µM) | % effect (motility), DIROIM L4 ([1]; 50 µM) | % effect (motility), DIROIM MF ([2]; 0.016 µM) | % effect (motility), DIROIM MF ([2]; 0.08 µM) | % effect (motility), DIROIM MF ([2]; 0.4 µM) | % effect (motility), DIROIM MF ([2]; 2 µM) | % effect (motility), DIROIM MF ([2]; 10 µM) | also measured |
| --- | --- | --- | --- | --- | --- | --- | --- | --- | --- | --- | --- | --- | --- |
| c1cc(N2CCN(CC3CCCCC3)CC2)ccn1 [Nemacol-22, 1-(cyclohexylmethyl)−4-(pyridin-4-yl)piperazine] | 0% | 10.8333% | 24.1667% | > 60 µM | 0% | 0% | 10% | 0% | 0% | 0% | 0% | 0% | – |
| N#Cc1ccc(N2CCN(CC3CCCCC3)CC2)cc1 [Nemacol-24, 4-(4-(cyclohexylmethyl)piperazin-1-yl)benzonitrile] | 8.333% | 45.8333% | 91.6667% | 16.3 ± 10.5 µM | – | 25% | 45% | 0% | 0% | 0% | 0% | 0% | – |
| O=[N+]([O-])c1ccc(N2CCN(CC3CC3)CC2)cc1 [Nemacol-28, 1-(cyclopropylmethyl)−4-(4-nitrophenyl)piperazine] | 0% | 4.167% | 32.5% | > 60 µM | 5% | 5% | 15% | 0% | 0% | 0% | 0% | 0% | – |
| Clc1ccc(N2CCN(C3CCCCCC3)CC2)cc1 [Nemacol-57] | – | – | – | 2.3 µM | – | 10% | 15% | 0% | 0% | 0% | 0% | 0% | atypical locomotion (number of animals) (C. elegans; 3.75uM, one hour): 12 and 13 and 15; coiled (number of animals) (C. elegans; 3.75uM, one hour): 3 and 1 and 2 and 7; no phene (number of animals) (C. elegans; 3.75uM, one hour): 0 and 2 and 3; paralyzed (number of animals) (C. elegans; 3.75uM, one hour): 5 and 4 and 1 and 0; any phene: mean % fraction of young adults exhibiting any phenotype (coiled, jerky-Unc or paralyzed) (C. elegans; 3.75uM, one hour, mean of three biological replicates): 92.5%; atypical locomotion (number of animals) (C. elegans; 15uM, one hour): 0 and 2 and 4 and 6; coiled (number of animals) (C. elegans; 15uM, one hour): 17 and 15 and 14 and 10 and 11; no phene (number of animals) (C. elegans; 15uM, one hour): 0; paralyzed (number of animals) (C. elegans; 15uM, one hour): 3 and 4 and 0 and 6; atypical locomotion (number of animals) (C. elegans; 60uM, one hour): 0 and 2 and 1; coiled (number of animals) (C. elegans; 60uM, one hour): 14 and 13 and 12 and 18 and 11; no phene (number of animals) (C. elegans; 60uM, one hour): 0; paralyzed (number of animals) (C. elegans; 60uM, one hour): 6 and 5 and 7 and 2 and 8 |
